Measured values taken from paper PMC4831007, “Discovery of a specific inhibitor of human GLUT5 by virtual screening and in vitro transport evaluation” (Scientific Reports, 2016).
Read-outs that look alike come from different tables or passages of the source.

Experiments:
GLUT1 [1] = biological target: T1, GLUT1 (Homo sapiens, UniProt P11166); assay: […]-glucose entrance counter-flow in proteoliposomes; assay type: biochemical; details: 10 μM 14C-glucose outside, 200 mM glucose inside; pH 7.5; 1 min; labelled compound
T1 construct: gene SLC2A1; full length, N-terminal His6 tag, Sf21 insect cells, purified in DDM, reconstituted in proteoliposomes
T1 sequence (P11166 1-492): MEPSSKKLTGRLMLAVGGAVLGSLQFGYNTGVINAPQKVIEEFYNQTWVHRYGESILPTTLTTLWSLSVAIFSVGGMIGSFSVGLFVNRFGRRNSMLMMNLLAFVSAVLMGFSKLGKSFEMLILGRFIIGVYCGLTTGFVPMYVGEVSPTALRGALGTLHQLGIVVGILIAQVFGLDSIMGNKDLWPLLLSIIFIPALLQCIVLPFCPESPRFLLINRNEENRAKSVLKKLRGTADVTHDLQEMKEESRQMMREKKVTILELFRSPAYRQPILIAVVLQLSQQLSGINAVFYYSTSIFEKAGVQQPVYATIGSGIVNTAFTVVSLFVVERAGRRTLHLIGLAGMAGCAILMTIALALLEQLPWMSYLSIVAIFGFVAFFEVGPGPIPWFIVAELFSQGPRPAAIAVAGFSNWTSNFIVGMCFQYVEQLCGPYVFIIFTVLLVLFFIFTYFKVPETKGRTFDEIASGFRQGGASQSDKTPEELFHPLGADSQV

GLUT3 = biological target: T2, GLUT3 (Homo sapiens, UniProt P11169); assay: as above; assay type: biochemical; details: 10 μM 14C-glucose outside, 200 mM glucose inside; pH 7.5; 1 min; labelled compound
T2 construct: gene SLC2A3; full length, N-terminal His6 tag, Sf21 insect cells, purified in DDM, reconstituted in proteoliposomes
T2 sequence (P11169 1-496): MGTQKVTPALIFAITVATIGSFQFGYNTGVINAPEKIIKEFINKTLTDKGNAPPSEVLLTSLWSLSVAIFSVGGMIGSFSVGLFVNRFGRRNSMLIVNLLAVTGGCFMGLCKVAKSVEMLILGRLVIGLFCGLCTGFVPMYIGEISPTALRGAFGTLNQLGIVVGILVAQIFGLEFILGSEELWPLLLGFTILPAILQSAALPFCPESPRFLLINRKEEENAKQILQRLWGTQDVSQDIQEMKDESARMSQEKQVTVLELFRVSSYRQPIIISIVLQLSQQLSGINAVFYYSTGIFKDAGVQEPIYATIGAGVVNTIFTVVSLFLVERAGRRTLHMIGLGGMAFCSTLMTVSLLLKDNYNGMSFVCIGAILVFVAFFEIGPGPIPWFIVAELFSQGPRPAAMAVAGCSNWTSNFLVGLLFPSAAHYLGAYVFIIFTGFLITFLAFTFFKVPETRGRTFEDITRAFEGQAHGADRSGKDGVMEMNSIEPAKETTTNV

GLUT4 = biological target: T3, GLUT4 (Homo sapiens, UniProt P14672); assay: as above; assay type: biochemical; details: 10 μM 14C-glucose outside, 200 mM glucose inside; pH 7.5; 1 min; labelled compound
T3 construct: gene SLC2A4; full length, N-terminal His6 tag, Sf21 insect cells, purified in DDM, reconstituted in proteoliposomes
T3 sequence (P14672 1-509): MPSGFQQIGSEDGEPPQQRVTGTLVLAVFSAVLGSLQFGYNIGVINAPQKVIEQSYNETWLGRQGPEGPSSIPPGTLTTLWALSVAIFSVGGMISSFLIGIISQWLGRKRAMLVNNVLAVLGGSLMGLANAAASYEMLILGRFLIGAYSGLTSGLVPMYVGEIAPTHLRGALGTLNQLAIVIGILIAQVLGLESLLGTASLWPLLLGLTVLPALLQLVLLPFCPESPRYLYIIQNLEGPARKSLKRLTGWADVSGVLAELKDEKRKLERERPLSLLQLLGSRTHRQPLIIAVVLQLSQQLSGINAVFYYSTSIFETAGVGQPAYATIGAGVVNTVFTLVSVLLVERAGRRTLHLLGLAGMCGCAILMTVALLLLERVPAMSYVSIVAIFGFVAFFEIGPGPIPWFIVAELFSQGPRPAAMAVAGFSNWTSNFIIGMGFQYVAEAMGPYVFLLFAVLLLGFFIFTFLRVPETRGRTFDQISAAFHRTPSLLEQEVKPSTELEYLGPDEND

GLUT2 [2] = biological target: T4, GLUT2 (Homo sapiens, UniProt P11168); assay: as above; assay type: biochemical; details: 10 μM 14C-glucose outside, 200 mM glucose inside; pH 7.5; 1 min; labelled compound
T4 construct: gene SLC2A2; full length, N-terminal His6 tag, Sf21 insect cells, purified in DDM, reconstituted in proteoliposomes
T4 sequence (P11168 1-524): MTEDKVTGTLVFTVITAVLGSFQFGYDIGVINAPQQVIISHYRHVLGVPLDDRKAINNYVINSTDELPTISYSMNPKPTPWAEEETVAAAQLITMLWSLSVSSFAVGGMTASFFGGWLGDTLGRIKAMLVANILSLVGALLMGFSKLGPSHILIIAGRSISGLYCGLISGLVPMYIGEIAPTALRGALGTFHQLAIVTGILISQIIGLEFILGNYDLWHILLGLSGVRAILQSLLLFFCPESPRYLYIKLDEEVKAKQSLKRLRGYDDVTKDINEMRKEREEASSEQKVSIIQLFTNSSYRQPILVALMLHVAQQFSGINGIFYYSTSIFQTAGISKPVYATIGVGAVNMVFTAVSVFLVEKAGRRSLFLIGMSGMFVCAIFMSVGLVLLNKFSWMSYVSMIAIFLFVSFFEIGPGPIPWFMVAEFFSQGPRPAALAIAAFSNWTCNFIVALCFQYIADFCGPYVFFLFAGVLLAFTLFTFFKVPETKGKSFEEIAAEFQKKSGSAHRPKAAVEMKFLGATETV

GLUT1 [3] = biological target: T1, GLUT1; assay: as above; assay type: biochemical
GLUT2 [4] = biological target: T4, GLUT2; assay: […]-fructose entrance counter-flow in proteoliposomes; assay type: biochemical; details: 10 μM 14C-fructose outside, 200 mM fructose inside; pH 7.5; 1 min; labelled compound
native human GLUT5 = biological target: T5, native human GLUT5 (Homo sapiens, UniProt P22732); assay: […]-fructose uptake in MCF7 cells, Dixon plot; assay type: cell-based; details: competitive with fructose; 50 μM cytochalasin B present to block GLUT2; 3-20 mM fructose; 2 min; 22 °C
T5 construct: gene SLC2A5; native full-length transporter in MCF7 breast cancer cells
T5 sequence (P22732 1-501): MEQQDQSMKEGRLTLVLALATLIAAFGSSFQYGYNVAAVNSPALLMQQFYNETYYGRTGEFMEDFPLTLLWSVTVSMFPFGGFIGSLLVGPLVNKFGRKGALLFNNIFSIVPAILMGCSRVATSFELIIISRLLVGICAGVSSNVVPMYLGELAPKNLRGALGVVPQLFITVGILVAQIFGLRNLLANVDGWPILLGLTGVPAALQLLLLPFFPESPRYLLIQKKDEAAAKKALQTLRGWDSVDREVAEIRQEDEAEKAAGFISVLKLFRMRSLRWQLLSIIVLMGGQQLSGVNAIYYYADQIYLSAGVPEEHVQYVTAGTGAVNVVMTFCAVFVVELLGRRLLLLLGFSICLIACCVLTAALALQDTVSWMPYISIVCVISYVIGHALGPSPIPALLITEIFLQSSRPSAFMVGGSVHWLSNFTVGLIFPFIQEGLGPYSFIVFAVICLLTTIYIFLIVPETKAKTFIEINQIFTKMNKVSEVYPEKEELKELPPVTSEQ

GlcPSe = biological target: T6, GlcPSe (Staphylococcus epidermidis, UniProt A0A0H2VG78, F348H); assay: biochemical; details: read-out: % inhibition at 2 mM
T6 construct: gene glcP
T6 sequence (A0A0H2VG78 whole entry F348H): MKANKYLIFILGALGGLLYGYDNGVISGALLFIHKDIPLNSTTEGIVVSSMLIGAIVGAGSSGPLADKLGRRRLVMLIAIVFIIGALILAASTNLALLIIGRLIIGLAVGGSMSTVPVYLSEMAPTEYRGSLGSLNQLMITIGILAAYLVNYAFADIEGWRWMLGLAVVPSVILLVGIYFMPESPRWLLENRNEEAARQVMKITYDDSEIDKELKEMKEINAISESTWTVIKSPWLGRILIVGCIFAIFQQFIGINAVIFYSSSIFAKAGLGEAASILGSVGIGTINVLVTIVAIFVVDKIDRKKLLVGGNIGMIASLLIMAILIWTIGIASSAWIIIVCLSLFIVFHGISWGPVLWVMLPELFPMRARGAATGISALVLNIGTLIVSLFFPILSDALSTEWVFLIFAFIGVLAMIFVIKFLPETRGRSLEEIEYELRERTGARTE

## OC[C@H]1OC(O)[C@H](O)[C@@H](O)[C@@H]1O (stereo partly drawn) [glucose]
GLUT1 [1]
  14C-glucose entrance counter-flow in proteoliposomes: Glucose transport of GLUT1, GLUT2, GLUT3 and GLUT4
GLUT3
  14C-glucose entrance counter-flow in proteoliposomes: Glucose transport of GLUT1, GLUT2, GLUT3 and GLUT4
GLUT4
  14C-glucose entrance counter-flow in proteoliposomes: Glucose transport of GLUT1, GLUT2, GLUT3 and GLUT4
GLUT2 [2]
  14C-glucose entrance counter-flow in proteoliposomes: Glucose transport of GLUT1, GLUT2, GLUT3 and GLUT4

## C=C1[C@@H](C)[C@H]2[C@H](Cc3ccccc3)NC(=O)[C@]23OC(=O)/C=C/[C@H](O)CCC[C@@H](C)C/C=C/[C@H]3[C@@H]1O [cytochalasin B]
GLUT1 [3]; 10 μM 14C-glucose outside, 200 mM glucose inside, pH 7.5, 1 min
  % inhibition at 2 mM: Effect of common GLUT1 inhibitors on the relative transport activity of GLUT5, GLUT1 and GlcPSe

## OCC1(O)OC[C@@H](O)[C@@H](O)[C@@H]1O (stereo partly drawn) [fructose]
GLUT2 [4]
  14C-fructose entrance counter-flow in proteoliposomes: fructose transport of GLUT2 were assayed by the entrance counter-flow method in proteoliposomes

## CS(=O)(=O)c1ccc(Nc2ccc3c(c2)OCO3)c([N+](=O)[O-])c1 [MSNBA, N-[4-(methylsulfonyl)-2-nitrophenyl]-1,3-benzodioxol-5-amine]
Native human GLUT5
  Ki: 3.2 ± 0.4 µM
GlcPSe
  inhibition at 2000 µM: 75%

## O=C(CCc1ccc(O)cc1)c1c(O)cc(O)cc1O [phloretin]
GLUT1 [3]
  % inhibition at 2 mM: Effect of common GLUT1 inhibitors on the relative transport activity of GLUT5, GLUT1 and GlcPSe
